Values joined by “and” are separate entries in the source; they are usually repeats but may differ in a detail not shown here. Equal values may be shown once.
molecular target: T1, HCV polymerase (Hepatitis C virus genotype 1b, UniProt Q9WMX2); test: biochemical; conditions: NS5B polymerase IC50 μM, polymerase assay of Biological Example 1
T1 construct: (His)6 (C)

| SMILES | IC50 [µM] |
| --- | --- |
| CCOP(C)(=O)CCCCCN(c1nc2oc(-c3ccc(C)cc3)c(C(=O)NC)c2cc1I)S(C)(=O)=O (stereo not shown) [Example 23.9994, ethyl 5-(N-(5-iodo-3-(methylcarbamoyl)-2-p-tolylfuro[2,3-b]pyridin-6-yl)methylsulfonamido)pentyl (methyl)phosphinate] | 0.038 |
| CCOP(C)(=O)CCCCN(c1nc2oc(-c3ccc(CC)cc3)c(C(=O)NC)c2cc1I)S(C)(=O)=O (stereo not shown) [Example 23.9991, ethyl 4-(N-(2-(4-ethylphenyl)-5-iodo-3-(methylcarbamoyl)furo[2,3-b]pyridin-6-yl)methylsulfonamido) butyl(methyl)phosphinate] | 0.026 |

same assay, conditions: polymerase assay of Biological Example 1; read-out: NS5B polymerase IC50

| SMILES | IC50 |
| --- | --- |
| CNC(=O)c1c(-c2ccc(F)cc2)oc2nc(N(C)S(C)(=O)=O)c(CCCS(C)(=O)=O)cc12 [Example 4.94, 2-(4-fluorophenyl)-N-methyl-6-(N-methylmethylsulfonamido)-5-(3-(methylsulfonyl)propyl)furo[2,3-b]pyridine-3-carboxamide] | 0.208 µM |
| CNC(=O)c1c(-c2ccc(F)cc2)oc2nc(N(CC3CCCN(C(=O)OC(C)(C)C)C3)S(C)(=O)=O)c(I)cc12 (stereo not shown) [Example 18.92, tert-butyl 3-((N-(2-(4-fluorophenyl)-5-iodo-3-(methylcarbamoyl)furo[2,3-b]pyridin-6-yl)methylsulfonamido)methyl)piperidine-1-carboxylate] | 1.02 µM |
| CCc1cc2c(C(=O)NC)c(-c3ccc(F)cc3)oc2nc1N(CCOc1ccccc1OC)S(C)(=O)=O [Example 21.91, 5-ethyl-2-(4-fluorophenyl)-6-(N-(2-(2-methoxyphenoxy)ethyl)methylsulfonamido)-N-methylfuro[2,3-b]pyridine-3-carboxamide] | 0.57 µM |
| CNC(=O)c1c(-c2ccc(C)cc2)oc2nc(N(CCCCBr)S(C)(=O)=O)c(C3CC3)cc12 [Example 29.997, 6-(N-(4-bromobutyl)methylsulfonamido)-5-cyclopropyl-N-methyl-2-p-tolylfuro[2,3-b]pyridine-3-carboxamide] | 0.002 µM |
| CCc1cc2c(C(=O)NC)c(-c3ccc(F)cc3)oc2nc1N(CCCCOc1ccccc1OC)S(C)(=O)=O [Example 22.1, 5-ethyl-2-(4-fluorophenyl)-6-(N-(4-(2-methoxyphenoxy)butyl)methylsulfonamido)-N-methylfuro[2,3-b]pyridine-3-carboxamide] | 0.034 µM |
| CCc1cc2c(C(=O)NC)c(-c3ccc(F)cc3)oc2nc1N(CCCCOc1ccccc1C#N)S(C)(=O)=O [Example 21.96, 6-(N-(4-(2-cyanophenoxy)butyl)methylsulfonamido)-5-ethyl-2-(4-fluorophenyl)-N-methylfuro[2,3-b]pyridine-3-carboxamide] | 0.072 µM |
| CNC(=O)c1c(-c2ccc(C)cc2)oc2nc(N(CCCC3(C(=O)O)CCN(C(C)=O)CC3)S(C)(=O)=O)c(C3CC3)cc12 [Example 29.99992, 1-acetyl-4-(3-(N-(5-cyclopropyl-3-(methylcarbamoyl)-2-p-tolylfuro[2,3-b]pyridin-6-yl)methylsulfonamido)propyl) piperidine-4-carboxylic acid] | 0.002 µM |
| CCc1cc2c(C(=O)NC)c(-c3ccc(F)cc3)oc2nc1N(CCCCC(=O)N(C)C)S(C)(=O)=O [Example 22.992, 6-(N-(5-(dimethylamino)-5-oxopentyl)methylsulfonamido)-5-ethyl-2-(4-fluorophenyl)-N-methylfuro[2,3-b]pyridine-3-carboxamide] | 0.041 µM |
| CNC(=O)c1c(-c2ccc(C)cc2)oc2nc(N(CCCCC(C)(C)C(=O)O)S(C)(=O)=O)c(C3CC3)cc12 [Example 29.2, 6-(N-(5-cyclopropyl-3-(methylcarbamoyl)-2-p-tolylfuro[2,3-b]pyridin-6-yl)methylsulfonamido)-2,2-dimethylhexanoic acid] | 0.001 µM |
| CCc1cc2c(C(=O)NC)c(-c3ccc(F)cc3)oc2nc1N(CCCS(=O)(=O)C1CC1)S(C)(=O)=O [Example 23.991, 6-(N-(3-(cyclopropylsulfonyl)propyl)methylsulfonamido)-5-ethyl-2-(4-fluorophenyl)-N-methylfuro[2,3-b]pyridine-3-carboxamide] | 0.061 µM |
| CNC(=O)c1c(-c2ccc(C)cc2)oc2nc(N(CCC[C@H](C)C(=O)NCCCC(=O)O)S(C)(=O)=O)c(C3CC3)cc12 [Example 29.999991, (S)-4-(5-(N-(5-cyclopropyl-3-(methylcarbamoyl)-2-p-tolylfuro[2,3-b]pyridin-6-yl)methylsulfonamido)-2-methylpentanamido)butanoic acid] | 0.02 µM |
| CCc1cc2c(C(=O)NC)c(-c3ccc(F)cc3)oc2nc1N(CCCNS(=O)(=O)c1ccccc1)S(C)(=O)=O [23.6] | 0.093 µM |
| CNC(=O)c1c(-c2ccc(Oc3ccccc3F)cc2)oc2nc(N(CCCCC(=O)O)S(C)(=O)=O)c(C3CC3)cc12 [Example 27.3, 5-(N-(5-cyclopropyl-2-(4-(2-fluorophenoxy)phenyl)-3-(methylcarbamoyl)furo[2,3-b]pyridin-6-yl)methylsulfonamido) pentanoic acid] | 0.023 µM |
| CNC(=O)c1c(-c2ccc(F)cc2)oc2nc(N(C)S(C)(=O)=O)c(/C=C/C#N)cc12 [Example 13, (E)-5-(2-cyanovinyl)-2-(4-fluorophenyl)-N-methyl-6-(N-methylmethylsulfonamido)furo[2,3-b]pyridine-3-carboxamide] | 0.273 µM |
| CNC(=O)c1c(-c2ccc(C)cc2C)oc2nc(N(CCCCC(=O)O)S(C)(=O)=O)c(C3CC3)cc12 [Example 29.99996, 5-(N-(5-cyclopropyl-2-(2,4-dimethylphenyl)-3-(methylcarbamoyl)furo[2,3-b]pyridin-6-yl)methylsulfonamido) pentanoic acid] | 0.037 µM |
| CNC(=O)c1c(-c2ccc(F)cc2)oc2nc(N(CCCn3ccnc3)S(C)(=O)=O)c(I)cc12 [Example 23.5, 6-(N-(3-(1H-imidazol-1-yl)propyl)methylsulfonamido)-2-(4-fluorophenyl)-5-iodo-N-methylfuro[2,3-b]pyridine-3-carboxamide] | 0.151 µM and 0.035 µM |
| CCc1cc2c(C(=O)NC)c(-c3ccc(F)cc3)oc2nc1N(CCOc1ccccc1C(=O)OC)S(C)(=O)=O [Example 22.5, methyl 2-(2-(N-(5-ethyl-2-(4-fluorophenyl)-3-(methylcarbamoyl)furo[2,3-b]pyridin-6-yl)methylsulfonamido)ethoxy)benzoate] | 0.083 µM |
| CNC(=O)c1c(-c2ccc(F)cc2)oc2nc(N(CCCC(C)O)S(C)(=O)=O)c(I)cc12 (stereo not shown) [Example 18.998, 2-(4-fluorophenyl)-6-(N-(4-hydroxypentyl)methylsulfonamido)-5-iodo-N-methylfuro[2,3-b]pyridine-3-carboxamide] | 0.039 µM |
| CNC(=O)c1c(-c2ccc(F)cc2)oc2nc(N(C)S(C)(=O)=O)c(CCCCCNC(C)=O)cc12 [Example 14.3, 5-(5-Acetylamino-pentyl)-2-(4-fluoro-phenyl)-6-(methanesulfonyl-methyl-amino)-furo[2,3-b]pyridine-3-carboxylic acid methylamide] | 0.498 µM |
| CNC(=O)c1c(-c2ccc(C)cc2)oc2nc(N(CCCCO)S(C)(=O)=O)c(I)cc12 [Example 23.9996, 6-(N-(4-hydroxybutyl)methylsulfonamido)-5-iodo-N-methyl-2-p-tolylfuro[2,3-b]pyridine-3-carboxamide] | 0.019 µM |
| CNC(=O)c1c(-c2ccc(C)cc2C)oc2nc(N(C)S(C)(=O)=O)c(C3CC3)cc12 [Example 2.99, 5-cyclopropyl-2-(2,4-dimethylphenyl)-N-methyl-6-(N-methylmethylsulfonamido)furo[2,3-b]pyridine-3-carboxamide] | 0.071 µM |
| CNC(=O)c1c(-c2ccc(C)cc2)oc2nc(N(CCCC3CCCC3C(=O)O)S(C)(=O)=O)c(I)cc12 (stereo not shown) [Example 18.9991, 2-(3-(N-(5-iodo-3-(methylcarbamoyl)-2-p-tolylfuro[2,3-b]pyridin-6-yl)methylsulfonamido)propyl)cyclopentanecarboxylic acid] | 0.005 µM |
| CNC(=O)c1c(-c2ccc(F)cc2)oc2nc(N(CCCC(O)CO)S(C)(=O)=O)c(I)cc12 (stereo not shown) [Example 18.93, 6-(N-(4,5-dihydroxypentyl)methylsulfonamido)-2-(4-fluorophenyl)-5-iodo-N-methylfuro[2,3-b]pyridine-3-carboxamide] | 0.108 µM |
| CNC(=O)c1c(-c2ccc(C)cc2)oc2nc(N(CCCC3(CC(=O)O)CCOCC3)S(C)(=O)=O)c(C3CC3)cc12 [Example 48, 2-(4-(3-(N-(5-cyclopropyl-3-(methylcarbamoyl)-2-p-tolylfuro[2,3-b]pyridin-6-yl)methylsulfonamido)propyl)tetrahydro-2H-pyran-4-yl)acetic acid] | 0.008 µM |
| CNC(=O)c1c(-c2ccc(C)cc2)oc2nc(N(CCCCCCC(=O)O)S(C)(=O)=O)c(C3CC3)cc12 [Example 29.996, 7-(N-(5-cyclopropyl-3-(methylcarbamoyl)-2-p-tolylfuro[2,3-b]pyridin-6-yl)methylsulfonamido) heptanoic acid] | 0.007 µM |
| CCc1ccc(-c2oc3nc(N(CCCC(C)(OC)C(=O)O)S(C)(=O)=O)c(C4CC4)cc3c2C(=O)NC)cc1 (stereo not shown) [Example 29.9991, 5-(N-(5-cyclopropyl-2-(4-ethylphenyl)-3-(methylcarbamoyl)furo[2,3-b]pyridin-6-yl)methylsulfonamido)-2-methoxy-2-methylpentanoic acid] | 0.003 µM |
| CCc1cc2c(C(=O)NC)c(-c3ccc(F)cc3)oc2nc1N(CCCCC1=C(O)CCC1=O)S(C)(=O)=O [Example 23.94, 5-ethyl-2-(4-fluorophenyl)-6-(N-(4-(2-hydroxy-5-oxocyclopent-1-enyl)butyl)methylsulfonamido)-N-methylfuro[2,3-b]pyridine-3-carboxamide] | 0.044 µM |
| CNC(=O)c1c(-c2ccc(C)cc2)oc2nc(N(CCCC3(C(=O)O)CCNCC3)S(C)(=O)=O)c(C3CC3)cc12 [Example 29.99991, 4-(3-(N-(5-cyclopropyl-3-(methylcarbamoyl)-2-p-tolylfuro[2,3-b]pyridin-6-yl)methylsulfonamido)propyl) piperidine-4-carboxylic acid] | 0.129 µM |
| CNC(=O)c1c(-c2ccc(F)cc2)oc2nc(N(Cc3cccc(C(N)=O)c3)S(C)(=O)=O)c(I)cc12 [Example 18.8, 6-(N-(3-carbamoylbenzyl)methylsulfonamido)-2-(4-fluorophenyl)-5-iodo-N-methylfuro[2,3-b]pyridine-3-carboxamide] | 0.051 µM |

From US20120015907A1, “Furopyridine compounds and uses thereof” (NOVARTIS AG, priority 2010, published 2012)
